Values of other authors as cited in patent publication US20240374528A1, “[…] DOSAGE FORMS COMPRISING DEUTETRABENAZINE” (AUSPEX PHARMACEUTICALS, INC., priority 2021, published 2024).

Conditions: relative to tetrabenazine; U.S. Pat. No. 8,524,733

[2H]C([2H])([2H])Oc1cc2c(cc1OC([2H])([2H])[2H])[C@H]1CC(=O)[C@H](CC(C)C)CN1CC2 [Deutetrabenazine, (RR,SS)-1,3,4,6,7,11b-hexahydro-9,10-di(methoxy-D3)-3-(2-methylpropyl)-2H-benzo[a]quinolizin-2-one]
half-life of active metabolites: increased half-life of its active metabolites
